Legend:
[1] = tested on: HTLV-IIIB-infected MT-4 cells; assay: Inhibitory effect on expression of HIV-specific antigen (immunofluorescence); format: cell-based
Method: After drying the cells cultured in Experiment 1 on a slide glass, they were fixed with methanol for 3 minutes and treated with human anti-HIV-III positive serum (IF antibody titer×4096) which was diluted 1/1,000 time at 37° C. for 30 minutes. Thereafter, it was washed with phosphate-buffered saline (PBS) for 15 minutes and treated with an anti-human IgG conjugated with fluorescein-isothiocyanate at 37° C. for 30 minutes. It was again washed with PBS and then the number of fluorescent cells, more specifically expressed HIV-specific virus antigen proteins were determined with a fluorescence microscope. "%" is a ratio of the number of fluorescent ray emitting cells to the number of total cells.

[2] = tested on: HTLV-IIIB-infected MT-4 cells; assay: Inhibitory effect of drugs on HIV-induced cell damage (trypan blue dye exclusion); format: cell-based
Method: In this experiment, there were used human MT4 cells, a human T4-positive cell line carrying adult T-cell leukemia causative virus, HTLV-1 (Gann Monogr.,1982, Vol. 28, pp. 219 -228) and HTLF-IIIB which is one of the HIV strains.
(§1) HTLV-IIIB-infected MT-4 cells were inoculated on RPMI 1640 culture mediums containing 10% heat-inactivated fetal calf serum, 100 IU/ml of penicillin and 100 μg/ml of streptomycin, to which tannic acid-S had been added in a variety of concentrations, in a cell number of 300,000/ml and were cultured at 37° C. in a carbon dioxide incubator. After the cultivation for three days, one half of the culture medium was withdrawn and the survival rate and the viable count (X 10^4 /ml) of the MT-4 cells in the medium were determined by a trypan blue dye exclusion test. To the remaining cultured cells, an equivalent amount of RPMI 1640 culture medium each containing the same amount of the drugs were added, the cultivation was further continued for additional 3 days and likewise the survival rate and the viable count were determined.

[3] = tested on: MOLT-4 and MOLT-4/HIV HTLV-IIIB cells; assay: Inhibitory effect on giant cell formation by mixed cultivation of MOLT-4 and MOLT-4/HIV HTLV-IIIB cells; format: cell-based, human; settings: 24 hours co-culture, co-culture control 18.5%
Method: This experiment was performed by the recently developed method of Yamamoto et al. (see Yamamoto et al., Virology, 1988, 164, p. 542; and J. Clinical Microbiology, 1988, 26, p. 1229).
MOLT-4 cells which are HTLV-I negative human T cell strain, and MOLT-4/HIVHT LV II IB cells which are persistently HIV-infected cells are separately cultured in a RPMI 1640 culture medium supplemented with 10% fetal calf serum to a cell density of 5×10^5 /ml respectively, these were mixed in a ratio of 1:1 and the drug was added thereto.
The mixed culture medium was cultured at 37° C. for 24 hours in a carbon dioxide incubator and the distribution of cell size was determined by a Cell Multisizer (available from Coulter Electronics, Ltd., Luton, England).
In Table IX, the rate of cell having a size of not less than 20 μm is expressed by "%". If MOLT-4 cells and MOLT-4/HIVHT LV II IB cells are separately cultured, the rates are 4.5 and 3.3% respectively, but it increased up to 18.5% when they are co-cultured. When tannic acid-S was added to the mixed culture medium in a concentration of 5 μg/ml, the rate was reduced to 8.2%.

[4] = tested on: HTLV-IIIB-non-infected MT-4 cells; assay: Toxicity: influence on the proliferation of T cells; format: cell-based, human
Method: as §1
As in Experiment 1, there was observed the influence of the compounds (drugs) of the present invention on the proliferation of HTLV-IIIB-non-infected MT-4 cells. The results thus observed are listed on the following Tables XI to XIV. The numerical values in these Tables mean viable count (X 10^4 /ml) and those in parentheses mean survival rates.

[5] = tested on: avian myeloblastosis virus RTase; format: biochemical; settings: 37° C., 40 minutes
Method: According to the method disclosed in Journal of Biological Chemistry, 1987, 262, p. 2187, the RTase inhibitory effect of the compounds of this invention is determined as follows:
More specifically, the compound of the present invention was added, in various amount, to a reaction solution which comprised 80 mM of Tris buffer solution (pH 8), 6 mM of magnesium chloride, 80 mM of potassium chloride, 10 mM of dithiothreitol, 20 μg/ml of polyadenylic acid, 0.02 μg/ml of oligodeoxy thymidine, 20 μM of tritium-labeled deoxythymidine-triphosphate and avian myeloblastosis virus RTase so that the total volume of the resultant solution was equal to 100 μl. After the reaction solution was incubated at 37° C. for 40 minutes, 100 μl of an ice-cooled 10% trichloroacetic acid solution was added to the solution to stop the reaction.
The reaction solution was filtered through a glass filter (Whatmann GF/C) and washed with a 10% trichloroacetic acid solution and then with ethanol. Thereafter, the glass filter was dried and examined by liquid scintillation counter.

[6] = Stability of powder and aqueous solution; settings: powder state and aqueous solution
[7] = drug 50 μg/ml, culture period 3 days
[8] = drug 50 μg/ml, culture period 6 days
[9] = drug 100 μg/ml, culture period 3 days
[10] = drug 100 μg/ml, culture period 6 days
[11] = drug 200 μg/ml, culture period 3 days
[12] = drug 200 μg/ml, culture period 6 days
[13] = drug 400 μg/ml, culture period 3 days
[14] = drug 400 μg/ml, culture period 6 days

sodium salt of ellagic acid sulfate [Ellagic acid-S]
Ratio of fluorescent ray emitting cells to total cells [1, 7]: < 1% | Ratio of fluorescent ray emitting cells to total cells [1, 8]: 90% | Ratio of fluorescent ray emitting cells to total cells [1, 9]: < 1% | Ratio of fluorescent ray emitting cells to total cells [1, 10]: 6.4% | Ratio of fluorescent ray emitting cells to total cells [1, 11]: < 1% | Ratio of fluorescent ray emitting cells to total cells [1, 12]: < 1% | Ratio of fluorescent ray emitting cells to total cells [1, 13]: 0% | Ratio of fluorescent ray emitting cells to total cells [1, 14]: < 1% | Viable count [2, 7]: 740000 mL⁻¹ | survival rate [2, 7]: 82% | Viable count [2, 8]: 230000 mL⁻¹ | survival rate [2, 8]: 43% | Viable count [2, 9]: 810000 mL⁻¹ | survival rate [2, 9]: 84% | Viable count [2, 10]: 1.03e+06 mL⁻¹ | survival rate [2, 10]: 78% | Viable count [2, 11]: 830000 mL⁻¹ | survival rate [2, 11]: 87% | Viable count [2, 12]: 860000 mL⁻¹ | survival rate [2, 12]: 83% | Viable count [2, 13]: 730000 mL⁻¹ | survival rate [2, 13]: 82% | Viable count [2, 14]: 470000 mL⁻¹ | survival rate [2, 14]: 89% | Rate of Giant Cell (cells of size not less than 20 μm) ([3]; drug 25 μg/ml): 15.1% | Rate of Giant Cell (cells of size not less than 20 μm) ([3]; drug 50 μg/ml): 17.0% | Rate of Giant Cell (cells of size not less than 20 μm) ([3]; drug 100 μg/ml): 13.0% | Rate of Giant Cell (cells of size not less than 20 μm) ([3]; drug 200 μg/ml): 9.5% | Viable count [4, 7]: 700000 mL⁻¹ | survival rate [4, 7]: 84 | Viable count [4, 8]: 1.37e+06 mL⁻¹ | survival rate [4, 8]: 89 | Viable count [4, 9]: 990000 mL⁻¹ | survival rate [4, 9]: 87 | Viable count [4, 10]: 1.09e+06 mL⁻¹ | survival rate [4, 10]: 83 | Viable count [4, 11]: 990000 mL⁻¹ | survival rate [4, 11]: 83 | Viable count [4, 12]: 1.04e+06 mL⁻¹ | survival rate [4, 12]: 85 | Viable count [4, 13]: 810000 mL⁻¹ | survival rate [4, 13]: 84 | Viable count [4, 14]: 700000 mL⁻¹ | survival rate [4, 14]: 82

sodium salt of epicatechin sulfate [Epicatechin-S]
Ratio of fluorescent ray emitting cells to total cells [1, 7]: < 1% | Ratio of fluorescent ray emitting cells to total cells [1, 8]: 90% | Ratio of fluorescent ray emitting cells to total cells [1, 9]: < 1% | Ratio of fluorescent ray emitting cells to total cells [1, 10]: < 1% | Ratio of fluorescent ray emitting cells to total cells [1, 11]: < 1% | Ratio of fluorescent ray emitting cells to total cells [1, 12]: < 1% | Ratio of fluorescent ray emitting cells to total cells [1, 13]: < 1% | Ratio of fluorescent ray emitting cells to total cells [1, 14]: < 1% | Viable count [2, 7]: 940000 mL⁻¹ | survival rate [2, 7]: 95% | Viable count [2, 8]: 450000 mL⁻¹ | survival rate [2, 8]: 63% | Viable count [2, 9]: 990000 mL⁻¹ | survival rate [2, 9]: 87% | Viable count [2, 10]: 1.1e+06 mL⁻¹ | survival rate [2, 10]: 92% | Viable count [2, 11]: 890000 mL⁻¹ | survival rate [2, 11]: 86% | Viable count [2, 12]: 1.22e+06 mL⁻¹ | survival rate [2, 12]: 91% | Viable count [2, 13]: 910000 mL⁻¹ | survival rate [2, 13]: 85% | Viable count [2, 14]: 1.33e+06 mL⁻¹ | survival rate [2, 14]: 91% | Rate of Giant Cell (cells of size not less than 20 μm) ([3]; drug 25 μg/ml): 14.2% | Rate of Giant Cell (cells of size not less than 20 μm) ([3]; drug 50 μg/ml): 14.0% | Rate of Giant Cell (cells of size not less than 20 μm) ([3]; drug 100 μg/ml): 15.1% | Rate of Giant Cell (cells of size not less than 20 μm) ([3]; drug 200 μg/ml): 13.9% | Viable count [4, 7]: 1.14e+06 mL⁻¹ | survival rate [4, 7]: 91 | Viable count [4, 8]: 1.38e+06 mL⁻¹ | survival rate [4, 8]: 85 | Viable count [4, 9]: 1.1e+06 mL⁻¹ | survival rate [4, 9]: 86 | Viable count [4, 10]: 1.47e+06 mL⁻¹ | survival rate [4, 10]: 93 | Viable count [4, 11]: 1.11e+06 mL⁻¹ | survival rate [4, 11]: 83 | Viable count [4, 12]: 1.33e+06 mL⁻¹ | survival rate [4, 12]: 92 | Viable count [4, 13]: 1.18e+06 mL⁻¹ | survival rate [4, 13]: 86 | Viable count [4, 14]: 1.37e+06 mL⁻¹ | survival rate [4, 14]: 92

sodium salt of sulfated 3,4,5- trigalloylquinic acid [Example 12]
RTase Inhibitory Effect (IC50) [5]: 9.2 mg/L

sodium salt of sulfated (-)-epigallocathechin-3-gallate [Epigallocatechin gallate-S]
Stability [6]: stable in powder state and in the form of aqueous solutions | Ratio of fluorescent ray emitting cells to total cells [1, 7]: < 1% | Ratio of fluorescent ray emitting cells to total cells [1, 8]: < 1% | Ratio of fluorescent ray emitting cells to total cells [1, 9]: < 1% | Ratio of fluorescent ray emitting cells to total cells [1, 10]: < 1% | Ratio of fluorescent ray emitting cells to total cells [1, 11]: < 1% | Ratio of fluorescent ray emitting cells to total cells [1, 12]: < 1% | Ratio of fluorescent ray emitting cells to total cells [1, 13]: < 1% | Ratio of fluorescent ray emitting cells to total cells [1, 14]: < 1% | Viable count [2, 7]: 830000 mL⁻¹ | survival rate [2, 7]: 85% | Viable count [2, 8]: 1.3e+06 mL⁻¹ | survival rate [2, 8]: 92% | Viable count [2, 9]: 840000 mL⁻¹ | survival rate [2, 9]: 83% | Viable count [2, 10]: 1.25e+06 mL⁻¹ | survival rate [2, 10]: 95% | Viable count [2, 11]: 810000 mL⁻¹ | survival rate [2, 11]: 89% | Viable count [2, 12]: 750000 mL⁻¹ | survival rate [2, 12]: 87% | Viable count [2, 13]: 720000 mL⁻¹ | survival rate [2, 13]: 82% | Viable count [2, 14]: 500000 mL⁻¹ | survival rate [2, 14]: 86% | Rate of Giant Cell (cells of size not less than 20 μm) ([3]; drug 25 μg/ml): 13.8% | Rate of Giant Cell (cells of size not less than 20 μm) ([3]; drug 50 μg/ml): 17.5% | Rate of Giant Cell (cells of size not less than 20 μm) ([3]; drug 100 μg/ml): 5.6% | Rate of Giant Cell (cells of size not less than 20 μm) ([3]; drug 200 μg/ml): 0.4% | Viable count [4, 7]: 1.06e+06 mL⁻¹ | survival rate [4, 7]: 88 | Viable count [4, 8]: 400000 mL⁻¹ | survival rate [4, 8]: 92 | Viable count [4, 9]: 1.14e+06 mL⁻¹ | survival rate [4, 9]: 85 | Viable count [4, 10]: 370000 mL⁻¹ | survival rate [4, 10]: 91 | Viable count [4, 11]: 900000 mL⁻¹ | survival rate [4, 11]: 91 | Viable count [4, 12]: 950000 mL⁻¹ | survival rate [4, 12]: 92 | Viable count [4, 13]: 960000 mL⁻¹ | survival rate [4, 13]: 89 | Viable count [4, 14]: 530000 mL⁻¹ | survival rate [4, 14]: 95

sodium salt of sulfuric acid ester of 1,2,3,4,6-penta-O-galloyl-β-D-glucose [Example 7]
RTase Inhibitory Effect (IC50) [5]: 0.45 mg/L

sodium salt of sulfuric acid ester of 1,2,3,4,6-penta-O-galloyl-β-D-glucose [Example 9]
RTase Inhibitory Effect (IC50) [5]: < 0.096 mg/L

Source: patent publication US5159069A, “Sulfated tannins and their salts” (Yamanouchi Pharmaceutical Co., Ltd., priority 1988, dated 1992)
